According to ChEMBL document CHEMBL1135270, “New highly active taxoids from 9 beta-dihydrobaccatin-9,10-acetals” (2002):
In brackets after ≈: the same amount, converted by molar mass.

Legend:
PC-6 [1] = assay: Growth inhibition of 50% of vincristine-resistant cell line expressing P-glycoprotein (PC-6/VCR) in MTT assay; format: functional; conditions: Homo sapiens
PC-6 [2] = assay: Growth inhibition of 50% of human small cell lung cancer (PC-6) cell line in MTT assay; format: functional

CC(=O)O[C@@]12CO[C@@H]1C[C@H](O)[C@@]1(C)[C@H](O)[C@H](O)C3=C(C)[C@@H](OC(=O)[C@H](O)[C@@H](NC(=O)OC(C)(C)C)c4ccco4)C[C@@](O)([C@@H](OC(=O)c4ccccc4)[C@H]21)C3(C)C
GI50 (PC-6 [1]): 422 ng/mL (≈ 528 nM)
GI50 (PC-6 [2]): 21 ng/mL (≈ 26.3 nM)

COc1ccc(C2O[C@@H]3C4=C(C)[C@@H](OC(=O)[C@H](O)[C@@H](NC(=O)OC(C)(C)C)c5ccco5)C[C@@](O)([C@@H](OC(=O)c5ccccc5)[C@@H]5[C@]6(OC(C)=O)CO[C@@H]6C[C@H](O)[C@@]5(C)[C@@H]3O2)C4(C)C)cc1 (stereo not given in full)
GI50 (PC-6 [1]): 9.25 ng/mL (≈ 10.1 nM)
GI50 (PC-6 [2]): 6.26 ng/mL (≈ 6.82 nM)

C=CC1O[C@@H]2C3=C(C)[C@@H](OC(=O)[C@H](O)[C@@H](NC(=O)OC(C)(C)C)c4ccccc4)C[C@@](O)([C@@H](OC(=O)c4ccccc4)[C@@H]4[C@]5(OC(C)=O)CO[C@@H]5C[C@H](O)[C@@]4(C)[C@@H]2O1)C3(C)C (stereo not given in full)
GI50 (PC-6 [1]): 4.64 ng/mL (≈ 5.47 nM)
GI50 (PC-6 [2]): 0.365 ng/mL (≈ 0.43 nM)

C=CC1O[C@@H]2C3=C(C)[C@@H](OC(=O)[C@H](O)[C@@H](NC(=O)OC(C)(C)C)c4ccco4)C[C@@](O)([C@@H](OC(=O)c4ccccc4)[C@@H]4[C@]5(OC(C)=O)CO[C@@H]5C[C@H](O)[C@@]4(C)[C@@H]2O1)C3(C)C (stereo not given in full)
GI50 (PC-6 [1]): 1.27 ng/mL (≈ 1.52 nM)
GI50 (PC-6 [2]): 0.743 ng/mL (≈ 0.887 nM)

CC(=O)O[C@@]12CO[C@@H]1C[C@H](O)[C@@]1(C)[C@@H]3OC(C)(C)O[C@@H]3C3=C(C)[C@@H](OC(=O)[C@H](O)[C@@H](NC(=O)OC(C)(C)C)c4ccco4)C[C@@](O)([C@@H](OC(=O)c4ccccc4)[C@H]21)C3(C)C
GI50 (PC-6 [1]): 1.88 ng/mL (≈ 2.24 nM)
GI50 (PC-6 [2]): 0.331 ng/mL (≈ 0.394 nM)
